Holding throughout (type): cell-based
The subject of one experiment is C. albicans ATCC 90028. As to the kind of experiment: microbe, parasite or virus in culture. The procedure, abridged: (§1)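 RPMI pH 7.0 (CLSI), 2-fold serial dilutions, 1.25% DMSO final (investigational). Inoc: Candida 0.5 McF 1:100; Aspergillus ~0.2-2.5×10^4 CFU/mL. 35° C., ~24-48 hr. MIC = no visible growth; MEC = small compact hyphae vs growth control.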
The subject of the next experiment is C. glabrata ATCC 90030. As to the kind of experiment: microbe, parasite or virus in culture. The procedure, abridged: as §1
Another experiment has as its system C. krusei ATCC 14243. In words: microbe, parasite or virus in culture. A digest of the protocol:
as §1

Experiment [1] deals with C. parapsilosis ATCC 22019. As to the kind of experiment: microbe, parasite or virus in culture. The procedure, abridged: as §1
Another experiment has as its system A. flavus MX 5948. In words: MEC assay (Example 31). As to conditions: RPMI pH 7.0, 35° C., 24-48 hr. The procedure, abridged:
as §1

For another experiment, the system named is A. fumigatus ATCC 13073. In words: MEC assay (Example 31). The following applies: RPMI pH 7.0, 35° C., 24-48 hr. A digest of the protocol: as §1
A further experiment concerns A. fumigatus MX 5944. In words: MEC assay (Example 31). The following applies: RPMI pH 7.0, 35° C., 24-48 hr. A digest of the protocol:
as §1

In the next experiment the test system is A. fumigatus MYA-3626. As to the kind of experiment: MEC assay (Example 31). The following applies: RPMI pH 7.0, 35° C., 24-48 hr. A digest of the protocol: as §1
A further experiment has as its system A. fumigatus MYA-4609. As to the kind of experiment: MEC assay (Example 31). As to conditions: RPMI pH 7.0, 35° C., 24-48 hr. A digest of the protocol:
as §1

Converted amounts (≈) assume the structure as drawn.

Consider `CC[C@H](C)C[C@H](C)CCCCCCCCC(=O)N[C@H]1C[C@@H](O)[C@@H](NCCN)NC(=O)[C@@H]2[C@@H](O)CCN2C(=O)[C@H]([C@H](O)CCNC(=O)[C@H](Cc2ccccc2)NC(=O)[C@H](CC(C)C)NC(=O)[C@H](CCSC)NC=O)NC(=O)[C@H]([C@H](O)[C@@H](O)c2ccc(O)cc2)NC(=O)[C@@H]2C[C@@H](O)CN2C(=O)[C@H]([C@@H](C)O)NC1=O` [Compound 1], for which the MIC in the experiment with C. albicans ATCC 90028 (ATCC 90028, pH 7) turned out to be 2 µg/mL (≈ 1.32 µM); against C. glabrata ATCC 90030 (ATCC 90030, pH 7), 4 µg/mL (≈ 2.64 µM); against C. krusei ATCC 14243 (ATCC 14243, pH 7), 8 µg/mL (≈ 5.29 µM); in experiment [1] (ATCC 22019, pH 7), 16 µg/mL (≈ 10.6 µM). Further, the MEC in the experiment with A. flavus MX 5948 lay in the range of 0.12 to 1 µg/mL; in the experiment with A. fumigatus ATCC 13073 it was 0.12 to 2 µg/mL; in the experiment with A. fumigatus MX 5944, 0.12 to 0.5 µg/mL; in the experiment on A. fumigatus MYA-3626 it was 0.25 to 0.5 µg/mL; with A. fumigatus MYA-4609 it was 0.12 to 1 µg/mL.

Take `CC[C@H](C)C[C@H](C)CCCCCCCCC(=O)N[C@H]1C[C@@H](O)[C@@H](OCCN)NC(=O)[C@@H]2[C@@H](O)CCN2C(=O)[C@H]([C@H](O)CCNC(=O)[C@H](Cc2ccccc2)NC(=O)[C@H](CC(C)C)NC(=O)[C@H](CCSC)NC=O)NC(=O)[C@H]([C@H](O)[C@@H](O)c2ccc(O)cc2)NC(=O)[C@@H]2C[C@@H](O)CN2C(=O)[C@H]([C@@H](C)O)NC1=O` [Compound 11]: the MIC in the experiment with C. albicans ATCC 90028 (ATCC 90028, pH 7) was 2 µg/mL (≈ 1.32 µM); against C. glabrata ATCC 90030 (ATCC 90030, pH 7), 8 µg/mL (≈ 5.28 µM); against C. krusei ATCC 14243 (ATCC 14243, pH 7), 16 µg/mL (≈ 10.6 µM); in experiment [1] (ATCC 22019, pH 7), 32 µg/mL (≈ 21.1 µM). Also, the MEC in the experiment with A. flavus MX 5948 was 0.06 µg/mL; in the experiment on A. fumigatus ATCC 13073 it was “≦0.06-0.06 μg/mL”; with A. fumigatus MX 5944, 0.12 µg/mL; in the experiment with A. fumigatus MYA-3626, 0.06 to 0.12 µg/mL; with A. fumigatus MYA-4609, 0.06 µg/mL.

“caspofungin acetate [reference compound]”: the MIC with C. albicans ATCC 90028 (C. albicans ATCC 90028, RPMI pH 7.0, 35° C., 24-48 hr) lay in the range of 0.03 to 0.12 µg/mL; against C. glabrata ATCC 90030 (C. glabrata ATCC 90030, RPMI pH 7.0, 35° C., 24-48 hr), 0.06 to 0.25 µg/mL; against C. krusei ATCC 14243 (C. krusei ATCC 14243, RPMI pH 7.0, 35° C., 24-48 hr), 0.5 to 1 µg/mL; in [1] (C. parapsilosis ATCC 22019, RPMI pH 7.0, 35° C., 24-48 hr), 0.5 to 1 µg/mL. The MEC entry in the experiment with A. flavus MX 5948 is “≦0.015-0.06 μg/mL”; in the experiment with A. fumigatus ATCC 13073 it was “≦0.03-0.06 μg/mL”; in the experiment on A. fumigatus MX 5944 it was 0.03 to 0.12 µg/mL; in the experiment on A. fumigatus MYA-3626 it was “≦0.03-0.12 μg/mL”; in the experiment with A. fumigatus MYA-4609, “≦0.03-1^ μg/mL”.

The record behind these values is patent publication US20160213742A1, “COMPOSITIONS AND METHODS FOR THE TREATMENT OF FUNGAL INFECTIONS” (priority 2013, published 2016).
